Experimental data reported in PubChem BioAssay (NCI).
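In this assay, cells in 96-well plates receive the compound at five concentrations for 48 hours. Endpoints are linearly interpolated between the surrounding concentrations. At the GI50, growth is halved. Definition used: TGI = concentration required for complete inhibition of growth.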

Key:
Experiment in all cases: NCI tumour cell line growth inhibition, 48 h
NCI-H226 lung = system: NCI-H226 lung
HOP-62 NSCLC = system: HOP-62 NSCLC
RPMI-8226 leukemia = system: RPMI-8226 leukemia
SK-OV-3 ovarian = system: SK-OV-3 ovarian
MALME-3M melanoma = system: MALME-3M melanoma
SF-268 CNS = system: SF-268 CNS
UO-31 renal = system: UO-31 renal
CCRF-CEM leukemia = system: CCRF-CEM leukemia
U251 CNS = system: U251 CNS
OVCAR-8 ovarian = system: OVCAR-8 ovarian
SF-295 CNS = system: SF-295 CNS
SW-620 colon = system: SW-620 colon
PC-3 prostate = system: PC-3 prostate
HL-60(TB) leukemia = system: HL-60(TB) leukemia
SF-539 CNS = system: SF-539 CNS
T-47D breast = system: T-47D breast
SN12C renal = system: SN12C renal
NCI-H23 lung = system: NCI-H23 lung
HCT-15 colon = system: HCT-15 colon
M14 melanoma = system: M14 melanoma
MCF7 breast = system: MCF7 breast
SK-MEL-28 melanoma = system: SK-MEL-28 melanoma
SK-MEL-2 melanoma = system: SK-MEL-2 melanoma
786-0 renal = system: 786-0 renal
MDA-MB-435 = system: MDA-MB-435
OVCAR-4 ovarian = system: OVCAR-4 ovarian
LOX IMVI melanoma = system: LOX IMVI melanoma
TK-10 renal = system: TK-10 renal
HCT-116 colon = system: HCT-116 colon

CCCCCN(CCCCC)CC(O)c1cc(C)c2ccc3cc(C(C)C)ccc3c2c1 (configuration not stated)
GI50 (NCI-H226 lung): 1.85 µM
TGI (NCI-H226 lung): 3.97 µM
GI50 (HOP-62 NSCLC): 2.12 µM
TGI (HOP-62 NSCLC): 5.7 µM
GI50 (RPMI-8226 leukemia): 2.11 µM
TGI (RPMI-8226 leukemia): 4.81 µM
GI50 (SK-OV-3 ovarian): 1.72 µM
TGI (SK-OV-3 ovarian): 3.46 µM
GI50 (MALME-3M melanoma): 1.92 µM
TGI (MALME-3M melanoma): 3.85 µM
GI50 (SF-268 CNS): 2.14 µM
TGI (SF-268 CNS): 4.26 µM
GI50 (UO-31 renal): 1.48 µM
TGI (UO-31 renal): 2.99 µM
GI50 (CCRF-CEM leukemia): 2.19 µM
TGI (CCRF-CEM leukemia): 5.53 µM
GI50 (U251 CNS): 1.9 µM
TGI (U251 CNS): 3.82 µM
GI50 (OVCAR-8 ovarian): 2.55 µM
TGI (OVCAR-8 ovarian): 6.46 µM
GI50 (SF-295 CNS): 1.87 µM
TGI (SF-295 CNS): 3.46 µM
GI50 (SW-620 colon): 1.81 µM
TGI (SW-620 colon): 3.61 µM
GI50 (PC-3 prostate): 1.59 µM
TGI (PC-3 prostate): 3.08 µM
GI50 (HL-60(TB) leukemia): 2.04 µM
TGI (HL-60(TB) leukemia): 4.02 µM
GI50 (SF-539 CNS): 1.79 µM
TGI (SF-539 CNS): 3.36 µM
GI50 (T-47D breast): 1.95 µM
TGI (T-47D breast): 4.38 µM
GI50 (SN12C renal): 1.75 µM
TGI (SN12C renal): 3.59 µM
GI50 (NCI-H23 lung): 1.77 µM
TGI (NCI-H23 lung): 3.4 µM
GI50 (HCT-15 colon): 1.81 µM
TGI (HCT-15 colon): 3.43 µM
GI50 (M14 melanoma): 1.77 µM
TGI (M14 melanoma): 3.7 µM
GI50 (MCF7 breast): 1.75 µM
TGI (MCF7 breast): 3.48 µM
GI50 (SK-MEL-28 melanoma): 1.76 µM
TGI (SK-MEL-28 melanoma): 3.27 µM
GI50 (SK-MEL-2 melanoma): 2.2 µM
TGI (SK-MEL-2 melanoma): 4.83 µM
GI50 (786-0 renal): 1.79 µM
TGI (786-0 renal): 3.41 µM
GI50 (MDA-MB-435): 1.72 µM
TGI (MDA-MB-435): 3.21 µM
GI50 (OVCAR-4 ovarian): 1.92 µM
TGI (OVCAR-4 ovarian): 3.75 µM
GI50 (LOX IMVI melanoma): 1.76 µM
TGI (LOX IMVI melanoma): 3.28 µM
GI50 (TK-10 renal): 1.89 µM
TGI (TK-10 renal): 3.51 µM
GI50 (HCT-116 colon): 1.73 µM
